Reference: patent US6124327A, “HIV integrase inhibitors” (Merck & Co., Inc., priority 1998, dated 2000)

How the values were obtained:
HIV-1 integrase = biological target: T1, HIV-1 integrase (Human immunodeficiency virus type 1 group M subtype B, UniProt P04585); experiment: HIV Integrase Substrate Cleavage (endonucleolytic processing and joining of the 3' end of HIV long terminal repeat terminus; coupled reaction); format: biochemical; settings: inhibitor at various concentrations in the range of 1 to 100 μM
T1 construct: HIV-1 integrase
Description: HIV Integrase Substrate Cleavage
As assay for endonucleolytic processing and joining of the 3' end of HIV long terminal repeat terminus by HIV-1 integrase was conducted according to Hazuda, et al., Nud. Acids Res., 22, 1121 (1994), herein incorporated by reference for these purposes. To assay inhibition of the coupled reaction, the assay was conducted with inhibitor having various concentrations in the range of 1 to 100 μM.

HIV integrase = biological target: T2, HIV integrase (Human immunodeficiency virus type 1 group M subtype B, UniProt P04585); experiment: Strand Transfer Assay for HIV Integrase (microtiter assay, processed donor (HIV) DNA to nonspecific, nicked target DNA); format: biochemical; settings: inhibitor at various concentrations in the range of 1 to 100 μM
T2 construct: HIV integrase
Description: Strand Transfer Assay for HIV Integrase
A microtiter assay for strand transfer of processed donor (HIV) DNA to nonspecific, nicked target DNA was conducted according to Wolfe, et al., J. Virol., 70, 1424 (1996), herein incorporated by reference for these purposes. To assay inhibition of such strand transfer by HIV integrase, the reaction was conducted with inhibitor having various concentrations in the range of 1 to 100 μM.

Row | Compound | IC50 (HIV-1 integrase) [µM] | IC50 (HIV integrase) [µM]
1 | CCCC(CCCCCCCc1cc(O)cc(O)c1C(=O)OC(CCC)CCCCCCCc1cc(O)cc(O)c1)OC(C)=O (centres unmarked) [Compound A] | 3.2 | 32
2 | CCCC(O)CCCCCCCc1cc(O)cc(O)c1C(=O)OC(CCC)CCCCCCCc1cc(O)cc(O)c1 (centres unmarked) [Compound B] | 6.1 | 17
3 | CCC/C=C/CCCCCCc1cc(O)cc(O)c1C(=O)OC(CCC)CCCCCCCc1cc(O)cc(O)c1 (centres unmarked) [Compound C] | 3.5 | > 88
4 | CCCC(O)CCCCCCCc1cc(O)cc(O)c1 (centres unmarked) [Compound D] | 93 | > 100
